Experimental data: patent publication US20220168389A1, “METHODS OF MAKING CHIMERIC ANTIGEN RECEPTOR-EXPRESSING CELLS” (priority 2019, published 2022)

System: freshly isolated, quiescent human T cells
Assay: Lentiviral transduction of freshly isolated quiescent (non-activated) T cells, flow cytometry
Format: cell-based
Method: Peripheral blood leukocytes from healthy donors were obtained from the Human Immunology Core. Informed consent was obtained from all participants prior to collection. All methods and experimental procedures were approved by the University of Pennsylvania Institutional Review Board. T cells were purified at the University's Human Immunology Core by negative selection using the RosetteSep T cell enrichment Cocktail. T cells were serum starved in RPMI media containing 10 mM HEPES, 2 mM L-glutamine 100 U/mL penicillin G and 100 μg/mL streptomycin for 2-6 hours and then resuspended at a concentration of 10^7 T cells/mL in X-VIVO 15 (Cambrex, Walkersville, Md.) supplemented with 5% normal human AB serum (Valley Biomedical, Winchester, Va.), 2 mM L-glutamine (Cambrex), 20 mM HEPES (Cambrex), IL7 and IL15 (10 ng/mL, Miltenyi Biotec), and deoxynucleosides (50 μM, Sigma). As the medium was switched to X-VIVO 15, T cells were simultaneously transduced with CD19-BBζ CAR or iRFP lentiviral supernatants for 24 hours.
1×10^6 cells were stained for cell surface markers to analyze T-cell differentiation status. […] Cells were washed with phosphate-buffered saline (PBS) and stained for viability using LIVE/DEAD Fixable Violet (Molecular Probes) for 15 minutes, washed once, and resuspended in fluorescence activated cell sorting (FACS) buffer containing PBS, 1% BSA, and 5 mM EDTA. […] Positively stained cells were differentiated from background using fluorescence-minus-one (FMO) controls. […]
For activated T cells, cells were resuspended at 10^6 T cells/mL in X-VIVO 15 (Cambrex, Walkersville, Md.) supplemented with 5% human AB serum (Valley Biomedical, Winchester, Va.), 2 mM L-glutamine (Cambrex), 20 mM HEPES (Cambrex), IL-7 and IL-15 (10 ng/mL, Miltenyi Biotec). […] Cell volume was also measured with a Multisizer III particle counter (Beckman-Coulter) every other day. […]
T cell differentiation was assessed using the following antibodies: anti-CCR7-FITC (BD Pharmingen); anti-CD45RO-PE, anti-CD8-H7APC (BD Biosciences); anti-CD4-BV510, anti-CD3-BV605, anti-CD14-Pacific Blue (PB), anti-CD19-PB (BioLegend). […]

deoxynucleosides [dNs] was tested, and the “increase in transduction efficiency of quiescent T cells” value (50 μM dNs vs cells in medium containing IL-7 and IL-15, iRFP vector (FIG. 2B)) was 3 fold, the “increase in lentiviral transduction of non-activated T cells” value (50 μM dNs, normalized to complete media without dNs, iRFP vector (FIG. 6B)) was roughly 2 fold and the “transduction efficiency in quiescent T cells” value (serum starvation combined with high concentrations of dNs (FIG. 2B)) was “exceeding 50%”.
